Among the data in patent US9169260B2 (MERCK SHARP & DOHME CORP., priority 2011, dated 2015) are IC50 values, retold here.

GST tagged IRAK-4, sequence (Q9NWZ3 whole entry): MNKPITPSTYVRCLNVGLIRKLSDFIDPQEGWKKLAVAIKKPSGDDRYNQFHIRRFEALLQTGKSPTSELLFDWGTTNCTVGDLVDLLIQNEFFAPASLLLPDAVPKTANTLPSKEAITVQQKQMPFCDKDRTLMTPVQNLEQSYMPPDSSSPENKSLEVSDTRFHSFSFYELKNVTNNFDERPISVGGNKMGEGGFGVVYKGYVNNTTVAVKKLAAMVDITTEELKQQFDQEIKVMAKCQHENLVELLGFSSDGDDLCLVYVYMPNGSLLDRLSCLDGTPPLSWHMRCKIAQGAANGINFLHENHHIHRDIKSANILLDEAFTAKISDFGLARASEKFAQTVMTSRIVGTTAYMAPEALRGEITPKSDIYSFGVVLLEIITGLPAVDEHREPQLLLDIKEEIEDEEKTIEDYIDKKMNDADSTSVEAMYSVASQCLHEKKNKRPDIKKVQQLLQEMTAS

One assay has as its target GST tagged IRAK-4 (Homo sapiens (Human), UniProt Q9NWZ3). The assay can be described thus: IRAK-4 Kinase Assay (IMAP fluorescence polarization). It is filed as biochemical.
Settings: not given
As to the method: The kinase activity of IRAK-4 is determined by its ability to catalyze the phosphorylation of a fluorescent polypeptide substrate. The extent of phosphorylation is measured using the IMAP technology (Molecular Devices) where the phosphorylated fluorescent substrate binds to the large M(III)-based nanoparticles which reduces the rotational speed of the substrate and thus increases its fluorescent polarization (FP).
20 μl reaction mixture contains 10 mM TriHCl, pH 7.2, 0.5 nM GST tagged IRAK-4 (SignalChem), 100 nM fluorescent peptide substrate (RP7030, Molecular Devices), 100 μM ATP, 1 mM DTT, 1 mM MgCl2, and 0.01% Tween 20. The reaction is initiated by the addition of ATP. After incubation for 30 minutes at 25° C., 60 μl of Progressive IMAP Reagent (Molecular Devices) is added to stop the reaction. Change in RP7030's FP is determined by a FP reader (Analyst HT, LH, BioSystems).
“N-(3-(1-methylpiperidin-4-yl)-1-(5-methylpyridin-2-yl)-1H-pyrazol-5-yl)pyrazolo[1,5-a]pyrimidine-3-carboxamide [Example 399]” returned an IC50 below 0.1 µM.

Still in this assay, the particulars now being: 100 μM ATP, 30 minutes at 25° C.
With `CCCN1CCC(c2cc(NC(=O)c3cnn4cccnc34)n(-c3ccc(C)cn3)n2)CC1` [Example 280, N-[1-(5-methylpyridin-2-yl)-3-(1-propylpiperidin-4-yl)-1H-pyrazol-5-yl]pyrazolo[1,5-a]pyrimidine-3-carboxamide], the IC50 is below 0.1 µM.

Molecule `Cc1ccc(-n2nc(C3CCN(C4CCCC4)CC3)cc2NC(=O)c2cnn3cccnc23)cc1` [Example 325, N-(3-(1-cyclopentylpiperidin-4-yl)-1-(p-tolyl)-1H-pyrazol-5-yl)pyrazolo[1,5-a]pyrimidine-3-carboxamide] showed an IC50 below 0.1 µM.

As for `Cc1ccc(-n2nc(N3CCN(C4CCOCC4)CC3)cc2NC(=O)c2cnn3cccnc23)nc1` [Example 321, N-{1-(5-methylpyridin-2-yl)-3-[4-(tetrahydro-2H-pyran-4-yl)piperazin-1-yl]-1H-pyrazol-5-yl}pyrazolo[1,5-a]pyrimidine-3-carboxamide], the IC50 is below 0.1 µM.

Regarding `Cc1ccc(-n2nc(C3CCN(C4CC(C#N)C4)CC3)cc2NC(=O)c2cnn3cccnc23)cc1` (stereo not drawn) [Example 258, N-{3-[1-(3-cyanocyclobutyl)piperidin-4-yl]-1-(4-methylphenyl)-1H-pyrazol-5-yl}pyrazolo[1,5-a]pyrimidine-3-carboxamide], the IC50 is below 0.1 µM.

The molecule `Cc1ccc(-n2nc(C3CCN(CC(F)(F)F)CC3)cc2NC(=O)c2cnn3cccnc23)cc1` [Example 41, N-(1-(p-tolyl)-3-(1-(2,2,2-trifluoroethyl)piperidin-4-yl)-1H-pyrazol-5-yl)pyrazolo[1,5-a]pyrimidine-3-carboxamide] displayed an IC50 below 0.1 µM.

Molecule `Cc1ccc(-n2nc(C3CCN(S(C)(=O)=O)CC3)cc2NC(=O)c2cnn3cccnc23)nc1` [Example 153, N-(1-(5-methylpyridin-2-yl)-3-(1-(methylsulfonyl)piperidin-4-yl)-1H-pyrazol-5-yl)pyrazolo[1,5-a]pyrimidine-3-carboxamide] had an IC50 below 0.1 µM.

With `Cc1ccc(-n2nc(C3CCN(Cc4ccccn4)CC3)cc2NC(=O)c2cnn3cccnc23)cc1` [Example 226, N-{1-(4-methylphenyl)-3-[1-(pyridin-2-ylmethyl)piperidin-4-yl]-1H-pyrazol-5-yl}pyrazolo[1,5-a]pyrimidine-3-carboxamide], the IC50 was below 0.1 µM.

Take `Cc1ccc(-n2nc(C3CCN(S(=O)(=O)C(C)C)CC3)cc2NC(=O)c2cnn3cccnc23)cc1` [Example 368, N-[3-{1-[(1-methylethyl)sulfonyl]piperidin-4-yl}-1-(4-methylphenyl)-1H-pyrazol-5-yl]pyrazolo[1,5-a]pyrimidine-3-carboxamide]: the IC50 was below 0.1 µM.

The molecule `Cc1ccc(-n2nc(C3CCN(CC4CC4)CC3)cc2NC(=O)c2cnn3cccnc23)nc1` [Example 281, N-{3-[1-(cyclopropylmethyl)piperidin-4-yl]-1-(5-methylpyridin-2-yl)-1H-pyrazol-5-yl}pyrazolo[1,5-a]pyrimidine-3-carboxamide] yielded an IC50 below 0.1 µM.

`CN1CCN(c2cc(NC(=O)c3cnn4cccnc34)n(-c3ccc(C4CC4)cn3)n2)CC1` [Example 201, N-(1-(5-cyclopropylpyridin-2-yl)-3-(4-methylpiperazin-1-yl)-1H-pyrazol-5-yl)pyrazolo[1,5-a]pyrimidine-3-carboxamide] returned an IC50 below 0.1 µM.

Molecule `Cc1ccc(-n2nc(-c3ccc(S(=O)(=O)N4CCC4)cc3)cc2NC(=O)c2cnn3cccnc23)cc1` [Example 344, N-{3-[4-(azetidin-1-ylsulfonyl)phenyl]-1-(4-methylphenyl)-1H-pyrazol-5-yl}pyrazolo[1,5-a]pyrimidine-3-carboxamide] yielded an IC50 below 0.1 µM.

The assay is the same for the next values; noted with them: 100 μM ATP, 30 minutes at 25° C.; μM.
Take `COc1ccc(S(=O)(=O)N2CCC(c3cc(NC(=O)c4cnn5cccnc45)n(-c4ccc(C)cc4)n3)CC2)cn1` [Example 389, N-[3-{1-[(6-methoxypyridin-3-yl)sulfonyl]piperidin-4-yl}-1-(4-methylphenyl)-1H-pyrazol-5-yl]pyrazolo[1,5-a]pyrimidine-3-carboxamide]: the 50% inhibitory concentration (IC50) is below 1 µM.

In the case of `Cc1ccc(-n2nc(C3CCN(C(C)CC(F)(F)F)CC3)cc2NC(=O)c2cnn3cccnc23)cc1` (stereo not drawn) [Example 260, N-{1-(4-methylphenyl)-3-[1-(3,3,3-trifluoro-1-methylpropyl)piperidin-4-yl]-1H-pyrazol-5-yl}pyrazolo[1,5-a]pyrimidine-3-carboxamide], the half-inhibitory concentration (IC50) is below 1 µM.

Turning to `COCCS(=O)(=O)N1CC(c2cc(NC(=O)c3cnn4cccnc34)n(-c3ccc(C)cc3)n2)C1` [Example 86, N-(3-(1-((2-methoxyethyl)sulfonyl)azetidin-3-yl)-1-(p-tolyl)-1H-pyrazol-5-yl)pyrazolo[1,5-a]pyrimidine-3-carboxamide], the IC50 is below 1 µM.

Molecule `Cc1ccc(-n2nc(C3CCN(S(=O)(=O)c4ccc(C(F)(F)F)cc4)CC3)cc2NC(=O)c2cnn3cccnc23)cc1` [Example 381, N-[1-(4-methylphenyl)-3-(1-{[4-(trifluoromethyl)phenyl]sulfonyl}piperidin-4-yl)-1H-pyrazol-5-yl]pyrazolo[1,5-a]pyrimidine-3-carboxamide] yielded an IC50 above 1 µM.

For `Cc1ccc(-n2nc(-c3ccc(=O)n(C)c3)cc2NC(=O)c2cnn3cccnc23)cc1` [Example 337, N-[3-(1-methyl-6-oxo-1,6-dihydropyridin-3-yl)-1-(4-methylphenyl)-1H-pyrazol-5-yl]pyrazolo[1,5-a]pyrimidine-3-carboxamide], the IC50 is below 1 µM.

`Cc1ccc(-n2nc(C3CCN(S(=O)(=O)c4ccc(F)c(F)c4)CC3)cc2NC(=O)c2cnn3cccnc23)cc1` [Example 365] had an IC50 below 1 µM.

`Cc1ccc(-n2nc(C3CCOCC3)cc2NC(=O)c2cnn3cccnc23)cc1` [Example 46, N-(3-(tetrahydro-2H-pyran-4-yl)-1-(p-tolyl)-1H-pyrazol-5-yl)pyrazolo[1,5-a]pyrimidine-3-carboxamide] returned an IC50 below 1 µM.

On to `Cc1ccc(-n2nc(C3CC3)cc2NC(=O)c2cnn3cccnc23)nc1` [Example 180, N-(3-cyclopropyl-1-(5-methylpyridin-2-yl)-1H-pyrazol-5-yl)pyrazolo[1,5-a]pyrimidine-3-carboxamide], for which the IC50 is above 1 µM.

Take `Cc1ccc(-n2nc(C3CN(S(=O)(=O)C4CC4)C3)cc2NC(=O)c2cnn3cccnc23)cc1` [Example 84, N-(3-(1-(cyclopropylsulfonyl)azetidin-3-yl)-1-(p-tolyl)-1H-pyrazol-5-yl)pyrazolo[1,5-a]pyrimidine-3-carboxamide]: the IC50 was below 1 µM.

Turning to `Cc1ccc(-n2nc(C3COCCN3)cc2NC(=O)c2cnn3cccnc23)nc1` (stereo not drawn) [Example 166, N-(1-(5-methylpyridin-2-yl)-3-(morpholin-3-yl)-1H-pyrazol-5-yl)pyrazolo[1,5-a]pyrimidine-3-carboxamide], the IC50 was below 1 µM.

`Cc1cc(F)ccc1-n1nc(C2CCN(C(C)C)CC2)cc1NC(=O)c1cnn2cccnc12` [Example 69, N-(1-(4-fluoro-2-methylphenyl)-3-(1-isopropylpiperidin-4-yl)-1H-pyrazol-5-yl)pyrazolo[1,5-a]pyrimidine-3-carboxamide] displayed an IC50 below 1 µM.

As to `Cc1cccc(-n2nc(C3CCNCC3)cc2NC(=O)c2cnn3cccnc23)c1` [Example 15, N-(3-(piperidin-4-yl)-1-(m-tolyl)-1H-pyrazol-5-yl)pyrazolo[1,5-a]pyrimidine-3-carboxamide], the half-maximal inhibitory concentration (IC50) was below 1 µM.

`Cc1ccc(-n2nc(-c3cncc(CO)c3)cc2NC(=O)c2cnn3cccnc23)cc1` [Example 332, N-{3-[5-(hydroxymethyl)pyridin-3-yl]-1-(4-methylphenyl)-1H-pyrazol-5-yl}pyrazolo[1,5-a]pyrimidine-3-carboxamide] showed an IC50 below 1 µM.

In the case of `Cc1ccc(-n2nc(C3CCN(C(C)c4nccs4)CC3)cc2NC(=O)c2cnn3cccnc23)cc1` (stereo not drawn) [Example 217, N-[1-(4-methylphenyl)-3-{1-[1-(1,3-thiazol-2-yl)ethyl]piperidin-4-yl}-1H-pyrazol-5-yl]pyrazolo[1,5-a]pyrimidine-3-carboxamide], the IC50 was below 1 µM.

Consider `Cc1ccc(-n2nc(C3CCN(S(=O)(=O)c4ccc(Cl)cc4Cl)CC3)cc2NC(=O)c2cnn3cccnc23)cc1` [Example 391, N-[3-{1[(2,4-dichlorophenyl)sulfonyl]piperidin-4-yl}-1-(4-methylphenyl)-1H-pyrazol-5-yl]pyrazolo[1,5-a]pyrimidine-3-carboxamide], for which the IC50 was above 1 µM.

`CN1CCC(c2cc(NC(=O)c3cnn4cccnc34)n(-c3ccc(F)cc3F)n2)CC1` [Example 48, N-(1-(2,4-difluorophenyl)-3-(1-methylpiperidin-4-yl)-1H-pyrazol-5-yl)pyrazolo[1,5-a]pyrimidine-3-carboxamide] yielded an IC50 below 1 µM.

`Cc1ccc(-n2nc(C3=CC(=O)N(C)CC3)cc2NC(=O)c2cnn3cccnc23)cc1` [Example 354, N-[3-(1-methyl-6-oxo-1,2,3,6-tetrahydropyridin-4-yl)-1-(4-methylphenyl)-1H-pyrazol-5-yl]pyrazolo[1,5-a]pyrimidine-3-carboxamide] registered an IC50 below 1 µM.

`Cc1ccc(-n2nc(C3CCN(S(=O)(=O)c4ccc5ncsc5c4)CC3)cc2NC(=O)c2cnn3cccnc23)cc1` [Example 384, N-{3-[1-(1,3-benzothiazol-6-ylsulfonyl)piperidin-4-yl]-1-(4-methylphenyl)-1H-pyrazol-5-yl}pyrazolo[1,5-a]pyrimidine-3-carboxamide] displayed an IC50 below 1 µM.

In general, IC50 refers to the concentration at which inhibition is half-maximal.
